Experimental data: PubChem BioAssay AID248 (DTP/NCI, 2004)
Several values for one entry are separate records, joined by “and”; a condition that tells them apart may be missing. Identical values can stand only once. Inconclusive results and toxic doses are left out.

Test system: L1210 leukemia ip in BDF1 mice, survival T/C
Experiment: NCI In Vivo Anticancer Drug Screen. Data for tumor model L1210 Leukemia (intraperitoneal) in B6D2F1 (BDF1) mice
Settings: endpoint: mean survival time, higher = longer survival
Summary of the method: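 Mice bearing the transplanted tumor received compound or vehicle. Survival of the treated group was divided by that of the vehicle-treated control group to give the ratio.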

[1] = dose: 25.0 mg/kg/injection, schedule: Q01DX009 (ip), vehicle: saline with Tween-80
[2] = dose: 50.0 mg/kg/injection, schedule: Q01DX009 (ip), vehicle: saline with Tween-80
[3] = dose: 100.0 mg/kg/injection, schedule: Q01DX009 (ip), vehicle: saline with Tween-80
[4] = dose: 50.0 mg/kg/injection, schedule: Q01DX001 (ip), vehicle: carboxymethylcellulose (CMC)
[5] = dose: 100.0 mg/kg/injection, schedule: Q01DX001 (ip), vehicle: carboxymethylcellulose (CMC)
[6] = dose: 200.0 mg/kg/injection, schedule: Q01DX001 (ip), vehicle: carboxymethylcellulose (CMC)
[7] = dose: 400.0 mg/kg/injection, schedule: Q01DX001 (ip), vehicle: carboxymethylcellulose (CMC)

## Nc1nncs1
dose: 3.75 mg/kg/injection, schedule: Q01DX015 (ip), vehicle: saline
  T/C: 103 % of control
dose: 7.0 mg/kg/injection, schedule: Q03HX032 (ip), vehicle: saline
  T/C: 107 % of control
dose: 7.5 mg/kg/injection, schedule: Q01DX015 (ip), vehicle: saline
  T/C: 106 % of control
dose: 7.5 mg/kg/injection, schedule: Q01DX Z (ip), vehicle: carboxymethylcellulose (CMC)
  T/C: 96 % of control
dose: 11.0 mg/kg/injection, schedule: Q03HX032 (ip), vehicle: saline
  T/C: 119 % of control
dose: 12.5 mg/kg/injection, schedule: Q01DX009 (ip), vehicle: saline
  T/C: 120 % of control
dose: 15.0 mg/kg/injection, schedule: Q01DX015 (ip), vehicle: saline
  T/C: 109 % of control
dose: 15.0 mg/kg/injection, schedule: Q01DX Z (ip), vehicle: carboxymethylcellulose (CMC)
  T/C: 114 % of control
dose: 16.0 mg/kg/injection, schedule: Q03HX032 (ip), vehicle: saline
  T/C: 108 % of control
dose: 20.0 mg/kg/injection, schedule: Q01DX Z (ip), vehicle: carboxymethylcellulose (CMC)
  T/C: 116 % of control
dose: 24.0 mg/kg/injection, schedule: Q03HX032 (ip), vehicle: saline
  T/C: 124 % of control
dose: 25.0 mg/kg/injection, schedule: Q01DX009 (ip), vehicle: saline
  T/C: 106 % of control
dose: 25.0 mg/kg/injection, schedule: Q01DX Z (ip), vehicle: carboxymethylcellulose (CMC)
  T/C: 112 % of control
dose: 27.0 mg/kg/injection, schedule: Q01DX015 (ip), vehicle: saline
  T/C: 123 % of control
dose: 32.0 mg/kg/injection, schedule: Q01DX009 (ip), vehicle: Klucel (hydroxypropylcellulose) (HPC)
  T/C: 151 % of control
dose: 36.0 mg/kg/injection, schedule: Q03HX032 (ip), vehicle: saline
  T/C: 156 % of control
dose: 50.0 mg/kg/injection, schedule: Q01DX009 (ip), vehicle: saline
  T/C: 95 % of control
dose: 60.0 mg/kg/injection, schedule: Q01DX015 (ip), vehicle: saline
  T/C: 151 % of control and 165 % of control and 166 % of control
dose: 64.0 mg/kg/injection, schedule: Q01DX009 (ip), vehicle: Klucel (hydroxypropylcellulose) (HPC)
  T/C: 94 % of control and 112 % of control
dose: 90.0 mg/kg/injection, schedule: Q01DX015 (ip), vehicle: saline
  T/C: 168 % of control
dose: 120.0 mg/kg/injection, schedule: Q01DX015 (ip), vehicle: saline
  T/C: 171 % of control
dose: 128.0 mg/kg/injection, schedule: Q01DX009 (ip), vehicle: Klucel (hydroxypropylcellulose) (HPC)
  T/C: 88 % of control and 90 % of control
dose: 135.0 mg/kg/injection, schedule: Q01DX015 (ip), vehicle: saline
  T/C: 151 % of control
dose: 240.0 mg/kg/injection, schedule: Q01DX015 (ip), vehicle: saline
  T/C: 116 % of control
dose: 270.0 mg/kg/injection, schedule: Q01DX001 (ip), vehicle: saline
  T/C: 120 % of control
dose: 480.0 mg/kg/injection, schedule: Q01DX015 (ip), vehicle: saline
  T/C: 107 % of control
dose: 500.0 mg/kg/injection, schedule: Q04DX003 (ip), vehicle: saline
  T/C: 100 % of control
dose: 600.0 mg/kg/injection, schedule: Q01DX001 (ip), vehicle: saline
  T/C: 124 % of control
dose: 1000.0 mg/kg/injection, schedule: Q04DX003 (ip), vehicle: saline
  T/C: 163 % of control

## Cn1c(-c2ccccc2)nc2c(N)ncnc21
dose: 25.0 mg/kg/injection, schedule: Q01DX001 (ip), vehicle: saline with Tween-80
  T/C: 95 % of control
dose: 50.0 mg/kg/injection, schedule: Q01DX001 (ip), vehicle: saline with Tween-80
  T/C: 90 % of control
dose: 100.0 mg/kg/injection, schedule: Q01DX001 (ip), vehicle: saline with Tween-80
  T/C: 90 % of control

## O=[N+]([O-])c1cc(Cl)[n+]([O-])c(Cl)c1
dose: 75.0 mg/kg/injection, schedule: Q01DX001 (ip), vehicle: carboxymethylcellulose (CMC)
  T/C: 101 % of control

## CS(=O)(=O)c1nc2ccccc2s1
[1]
  T/C: 97 % of control
dose: 25.0 mg/kg/injection, schedule: Q04DX003 (ip), vehicle: Klucel (hydroxypropylcellulose) (HPC)
  T/C: 101 % of control
[2]
  T/C: 92 % of control
dose: 50.0 mg/kg/injection, schedule: Q04DX003 (ip), vehicle: Klucel (hydroxypropylcellulose) (HPC)
  T/C: 106 % of control
[3]
  T/C: 107 % of control
dose: 100.0 mg/kg/injection, schedule: Q04DX003 (ip), vehicle: Klucel (hydroxypropylcellulose) (HPC)
  T/C: 106 % of control

## CN(C)CCC=C1c2ccccc2-c2ccccc21
dose: 15.0 mg/kg/injection, schedule: Q01DX015 (ip), vehicle: carboxymethylcellulose (CMC)
  T/C: 88 % of control
[1]
  T/C: 105 % of control
dose: 30.0 mg/kg/injection, schedule: Q01DX015 (ip), vehicle: carboxymethylcellulose (CMC)
  T/C: 92 % of control
[4]
  T/C: 93 % of control
[2]
  T/C: 96 % of control
dose: 60.0 mg/kg/injection, schedule: Q01DX015 (ip), vehicle: carboxymethylcellulose (CMC)
  T/C: 92 % of control
[5]
  T/C: 104 % of control
[3]
  T/C: 111 % of control
dose: 100.0 mg/kg/injection, schedule: Q04DX003 (ip), vehicle: saline
  T/C: 115 % of control
dose: 120.0 mg/kg/injection, schedule: Q01DX015 (ip), vehicle: carboxymethylcellulose (CMC)
  T/C: 92 % of control
[6]
  T/C: 98 % of control
[7]
  T/C: 101 % of control

## COc1ccc(CCCCI)cc1
dose: 100.0 mg/kg/injection, schedule: Q01DX001 (ip), vehicle: acetone
  T/C: 98 % of control
dose: 100.0 mg/kg/injection, schedule: Q04DX003 (ip), vehicle: acetone
  T/C: 93 % of control
dose: 200.0 mg/kg/injection, schedule: Q01DX001 (ip), vehicle: acetone
  T/C: 95 % of control
dose: 200.0 mg/kg/injection, schedule: Q04DX003 (ip), vehicle: acetone
  T/C: 94 % of control
dose: 400.0 mg/kg/injection, schedule: Q01DX001 (ip), vehicle: acetone
  T/C: 115 % of control
dose: 400.0 mg/kg/injection, schedule: Q04DX003 (ip), vehicle: acetone
  T/C: 95 % of control

## COc1ccc(C2C(c3ccccc3)C=CC(c3ccccc3)C2[N+](=O)[O-])cc1OC (configuration not stated)
[5]
  T/C: 94 % of control
[6]
  T/C: 110 % of control
[7]
  T/C: 94 % of control

## O=C(c1cccnc1)N1CCCC1
dose: 100.0 mg/kg/injection, schedule: Q01DX009 (ip), vehicle: Klucel (hydroxypropylcellulose) (HPC)
  T/C: 113 % of control
dose: 200.0 mg/kg/injection, schedule: Q01DX009 (ip), vehicle: Klucel (hydroxypropylcellulose) (HPC)
  T/C: 109 % of control
dose: 400.0 mg/kg/injection, schedule: Q01DX009 (ip), vehicle: Klucel (hydroxypropylcellulose) (HPC)
  T/C: 98 % of control

## CCCCCCOCC(O)CNCCN (configuration not stated)
dose: 6.25 mg/kg/injection, schedule: Q04DX003 (ip), vehicle: saline with Tween-80
  T/C: 95 % of control
dose: 12.5 mg/kg/injection, schedule: Q04DX003 (ip), vehicle: saline with Tween-80
  T/C: 90 % of control
dose: 25.0 mg/kg/injection, schedule: Q04DX003 (ip), vehicle: saline with Tween-80
  T/C: 96 % of control

## CC(CC(=O)OCC(F)(F)C(F)(F)C(F)(F)C(F)F)CC(=O)OCC(F)(F)C(F)(F)C(F)(F)C(F)F
[4]
  T/C: 96 % of control
[5]
  T/C: 100 % of control
[6]
  T/C: 96 % of control
[7]
  T/C: 91 % of control

## Clc1ccc(/C=N\N2CCCCCC2)cc1
dose: 100.0 mg/kg/injection, schedule: Q01DX001 (ip), vehicle: Klucel (hydroxypropylcellulose) (HPC)
  T/C: 105 % of control
dose: 200.0 mg/kg/injection, schedule: Q01DX001 (ip), vehicle: Klucel (hydroxypropylcellulose) (HPC)
  T/C: 100 % of control
dose: 400.0 mg/kg/injection, schedule: Q01DX001 (ip), vehicle: Klucel (hydroxypropylcellulose) (HPC)
  T/C: 98 % of control

## COc1ccc(C(CC(C)=O)c2c(O)c3ccccc3oc2=O)cc1OC (configuration not stated)
dose: 1.56 mg/kg/injection, schedule: Q01DX009 (ip), vehicle: water
  T/C: 102 % of control
dose: 3.12 mg/kg/injection, schedule: Q01DX009 (ip), vehicle: water
  T/C: 97 % of control
dose: 6.25 mg/kg/injection, schedule: Q01DX009 (ip), vehicle: water
  T/C: 98 % of control
dose: 12.5 mg/kg/injection, schedule: Q01DX009 (ip), vehicle: water
  T/C: 93 % of control
dose: 25.0 mg/kg/injection, schedule: Q01DX009 (ip), vehicle: water
  T/C: 93 % of control and 86 % of control

## O=C(Cc1cc2c(cc1[N+](=O)[O-])OCO2)c1c[nH]c2ccccc12
dose: 50.0 mg/kg/injection, schedule: Q01DX001 (ip), vehicle: saline
  T/C: 98 % of control
dose: 100.0 mg/kg/injection, schedule: Q01DX001 (ip), vehicle: saline
  T/C: 98 % of control
dose: 200.0 mg/kg/injection, schedule: Q01DX001 (ip), vehicle: saline
  T/C: 95 % of control
dose: 400.0 mg/kg/injection, schedule: Q01DX001 (ip), vehicle: saline
  T/C: 101 % of control
